Data from PubChem BioAssay (NCI).
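Following 48 hours of exposure in 96-well plates, responses at five concentrations were used to interpolate endpoints linearly. At the GI50, growth is halved. TGI denotes the concentration required for complete inhibition of growth.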

Assays:
Test in all cases: inhibition of tumour cell growth, NCI panel, 48 h
NCI-H522 lung = tested on: NCI-H522 lung
KM12 colon = tested on: KM12 colon
COLO 205 colon = tested on: COLO 205 colon
SF-539 CNS = tested on: SF-539 CNS
UACC-62 melanoma = tested on: UACC-62 melanoma
HT29 colon = tested on: HT29 colon
MALME-3M melanoma = tested on: MALME-3M melanoma
SK-OV-3 ovarian = tested on: SK-OV-3 ovarian
OVCAR-8 ovarian = tested on: OVCAR-8 ovarian
T-47D breast = tested on: T-47D breast

SMILES | GI50 (NCI-H522 lung) [µM] | TGI (NCI-H522 lung) [µM] | GI50 (KM12 colon) [µM] | TGI (KM12 colon) [µM] | GI50 (COLO 205 colon) [µM] | TGI (COLO 205 colon) [µM] | GI50 (SF-539 CNS) [µM] | TGI (SF-539 CNS) [µM] | GI50 (UACC-62 melanoma) [µM] | TGI (UACC-62 melanoma) [µM] | GI50 (HT29 colon) [µM] | TGI (HT29 colon) [µM] | GI50 (MALME-3M melanoma) [µM] | TGI (MALME-3M melanoma) [µM] | GI50 (SK-OV-3 ovarian) [µM] | TGI (SK-OV-3 ovarian) [µM] | TGI (OVCAR-8 ovarian) [µM] | GI50 (T-47D breast) [µM] | TGI (T-47D breast) [µM] | GI50 (OVCAR-8 ovarian) [µM]
O=C1c2c(c3c4ccccc4[nH]c3c3ccc4ccccc4c23)C(=O)N1CCN1CCNCC1 | 1.75 | 3.61 | 1.5 | 3.07 | 1.78 | 3.6 | 1.68 | 3.06 | 1.86 | 3.77 | 1.72 | 3.27 | 1.57 | 3.18 | 1.86 | 3.58 | – | – | – | –
Clc1ccc(Nc2nc3ccccc3nc2-c2cccs2)cc1Cl | – | – | – | – | – | > 100 | – | > 100 | – | > 100 | – | > 100 | – | > 100 | – | > 100 | 68.6 | – | – | –
Cc1cc(S(=O)(=O)/N=C(/N)Nc2ccccc2O)c(SCc2ccccc2)cc1Cl | 9.68 | 27.1 | 12.6 | 32.5 | 23 | 47.8 | 10.4 | 24.7 | 9.6 | 22.7 | 32.5 | > 100 | 20.3 | 38.2 | – | – | 36 | 12.2 | 31.4 | 12.9
CC(=O)C(CN(CC(C)C)CC(C)C)C(c1ccccc1)c1c(O)c2ccccc2oc1=O (stereo not given) | – | > 100 | – | – | – | > 100 | – | > 100 | – | > 100 | – | > 100 | – | > 100 | – | > 100 | > 100 | – | – | –
COc1cc(C(=O)C/C(CCC(=O)Nc2ccccc2[N+](=O)[O-])=N\NC(N)=O)ccc1O | – | > 100 | – | > 100 | – | > 100 | – | > 100 | – | > 100 | – | > 100 | – | > 100 | – | > 100 | > 100 | – | – | –
CO[C@H]1CC(O[C@@H]2/C(C)=C/C[C@@H]3C[C@@H](C[C@]4(C=C[C@H](C)[C@@H](C5CCCCC5)O4)O3)OC(=O)[C@@H]3C=C(C)[C@@H](O)[C@H]4OC/C(=C\C=C\[C@@H]2C)[C@]43O)O[C@@H](C)C1O[C@H]1C[C@H](OC)[C@@H](O)[C@H](C)O1 (stereo not given in full) | – | – | 1.77 | 3.54 | 2.03 | 3.71 | – | – | – | – | 1.87 | 3.85 | – | – | 1.97 | 3.61 | 5.29 | 1.65 | 3.43 | 2.07
CCC(=O)C12OC3OC(C)(C)OC3C1OC(C)(C)O2 (stereo not given) | – | > 100 | – | > 100 | – | – | – | > 100 | – | > 100 | – | > 100 | – | > 100 | – | > 100 | > 100 | – | – | –
CC1(O)C=CC(=O)C=C1 | – | 33.7 | – | > 75.4 | – | > 100 | – | 54.9 | – | 36.2 | – | > 100 | – | 39.5 | – | > 100 | > 68.8 | – | – | –
CN(C)CCCn1c(=O)c2ccccc2c2ccccc21 | 12.5 | 30.6 | 15.5 | 66.7 | 5.58 | 20.6 | 11.8 | 28.8 | 17 | 33.6 | 5.74 | 33.4 | – | – | 26.6 | > 100 | > 100 | 25.2 | > 100 | 7.03
